Here are results for 24 compounds from ChEMBL document CHEMBL3868631, “Discovery of SOAT2 inhibitors from synthetic small molecules” (Bioorg Med Chem Lett, 2016).

Data set [1] is described as follows: Cytotoxicity against CHO cells expressing African green monkey SOAT1 assessed as change in cell shape at 10 ug/ml. In kind it is toxicity, cell-based, Cricetulus griseus. The conditions noted are these: chinese hamster.
The nature of data set [2]: Cytotoxicity against CHO cells expressing African green monkey SOAT2 assessed as change in cell shape at 10 ug/ml. The conditions noted are these: chinese hamster. In kind it is toxicity, cell-based, Cricetulus griseus.
Data set [3] addresses T1, SOAT1 (sterol O-acyltransferase 1) (Chlorocebus aethiops, UniProt O77760).
T1 sequence (O77760 whole entry): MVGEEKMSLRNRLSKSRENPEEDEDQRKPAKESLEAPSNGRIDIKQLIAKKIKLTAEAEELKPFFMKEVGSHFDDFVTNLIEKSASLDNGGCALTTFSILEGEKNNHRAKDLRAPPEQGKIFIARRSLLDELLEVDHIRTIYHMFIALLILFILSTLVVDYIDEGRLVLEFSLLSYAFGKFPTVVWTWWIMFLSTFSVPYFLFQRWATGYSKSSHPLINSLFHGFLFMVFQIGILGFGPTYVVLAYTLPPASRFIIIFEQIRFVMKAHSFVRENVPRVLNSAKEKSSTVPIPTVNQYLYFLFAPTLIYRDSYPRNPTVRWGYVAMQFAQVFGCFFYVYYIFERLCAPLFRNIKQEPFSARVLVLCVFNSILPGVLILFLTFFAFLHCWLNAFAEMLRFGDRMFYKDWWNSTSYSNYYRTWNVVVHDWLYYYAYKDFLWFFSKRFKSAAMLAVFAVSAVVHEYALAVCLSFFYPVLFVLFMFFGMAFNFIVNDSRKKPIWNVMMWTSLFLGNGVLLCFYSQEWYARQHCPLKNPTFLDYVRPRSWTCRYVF
In words: Inhibition of African green monkey SOAT1 expressed in CHO cells assessed as reduction in [14C]cholesteryl ester formation from [1-14C]oleic acid at 10 ug/ml measured after 6 hrs relative to control. The settings on record: CHO cells expressing African green monkey SOAT1, probe [1-14C]oleic acid. In kind it is ADME, cell-based.

The target in data set [4] is T2, Sterol O-acyltransferase 2 (Chlorocebus aethiops) (UniProt O77759).
T2 sequence (whole entry): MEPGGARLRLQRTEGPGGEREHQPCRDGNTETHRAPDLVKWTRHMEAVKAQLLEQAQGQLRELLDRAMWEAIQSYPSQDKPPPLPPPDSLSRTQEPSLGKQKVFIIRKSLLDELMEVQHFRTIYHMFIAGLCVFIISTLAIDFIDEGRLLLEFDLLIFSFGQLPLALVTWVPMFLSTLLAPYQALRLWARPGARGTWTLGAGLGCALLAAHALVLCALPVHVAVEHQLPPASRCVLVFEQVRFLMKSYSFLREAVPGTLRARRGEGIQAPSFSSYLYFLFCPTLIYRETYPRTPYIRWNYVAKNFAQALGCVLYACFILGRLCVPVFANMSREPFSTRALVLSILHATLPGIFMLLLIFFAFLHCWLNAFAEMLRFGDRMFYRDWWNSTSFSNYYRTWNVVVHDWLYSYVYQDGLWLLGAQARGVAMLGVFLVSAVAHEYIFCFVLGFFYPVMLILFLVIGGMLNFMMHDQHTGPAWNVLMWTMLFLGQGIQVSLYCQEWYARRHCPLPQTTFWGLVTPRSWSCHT
In words: Inhibition of African green monkey SOAT2 expressed in CHO cells assessed as reduction in [14C]cholesteryl ester formation from [1-14C]oleic acid at 10 ug/ml measured after 6 hrs relative to control. In kind it is cell-based.

The nature of data set [5]: Selectivity index, ratio of IC50 for African green monkey SOAT1 expressed in CHO cells to IC50 for African green monkey SOAT2 expressed in CHO cells. Also on record: species or system Chlorocebus aethiops.
Data set [6] deals with T3, Sterol O-acyltransferase 2 (Chlorocebus aethiops, UniProt O77759).
T3 sequence (O77759 whole entry): T2 sequence (whole entry)
The data set can be described thus: Inhibition of African green monkey SOAT2 expressed in CHO cells assessed as reduction in [14C]cholesteryl ester formation from [1-14C]oleic acid measured after 6 hrs. In kind it is cell-based.

Data set [7] has as its target T4, Sterol O-acyltransferase 1 (Chlorocebus aethiops, UniProt O77760).
T4 sequence (O77760 whole entry): T1 sequence (O77760 whole entry)
In words: Inhibition of African green monkey SOAT1 expressed in CHO cells assessed as reduction in [14C]cholesteryl ester formation from [1-14C]oleic acid measured after 6 hrs. In kind it is ADME, cell-based.

For the compound `CCC[C@@H]1CC(=O)C[C@@]2(O1)C(=O)Nc1ccccc12` (racemic), the Activity entry in data set [1] is on record as “Non-Toxic”.
Regarding `C=CC[C@@]1(O)C[C@@H](CCC)O[C@]2(C1)C(=O)Nc1ccccc12`, the Activity result in data set [2] and in data set [1] was “Non-Toxic” each time.
In general, inhibition refers to the change of the read-out against control, counted positive when it falls. In the case of `O=C1CC(c2ccccc2)O[C@]2(C1)C(=O)Nc1cccc(Br)c12` (mixture of isomers), in data set [3], the inhibition at 6 h, 10 ug/ml is greater than 50%. The Activity result in data set [2] and in data set [1] was “Non-Toxic” throughout. Moreover, in data set [4], the inhibition is greater than 50%.
What is called IC50 is the midpoint of a concentration-inhibition curve. Regarding `CCC[C@@H]1C[C@@H](NCc2ccccc2)C[C@@]2(O1)C(=O)N(Cc1ccccc1)c1ccccc12` (racemic), the “Ratio IC50” value in data set [5] came out at 1.2. Moreover, in data set [3], the inhibition at 6 h, 10 ug/ml was greater than 50%. Also, the IC50 was 9.1 µM in data set [6] and 11 µM in data set [7]. Moreover, the inhibition in data set [4] was greater than 50%.
`CCC[C@@H]1C[C@@H](NCc2ccccc2)C[C@@]2(O1)C(=O)Nc1cccc(Br)c12` (racemic): the “Ratio IC50” value in data set [5] is greater than 1.9. For the same compound, the inhibition at 6 h, 10 ug/ml in data set [3] is greater than 50%. For the same compound, the results for the IC50 in data set [6] and in data set [7] were 12 µM and greater than 23 µM, respectively. For the same compound, the inhibition in data set [4] is greater than 50%.
Take `O=C1C[C@@H](CCCCl)O[C@]2(C1)C(=O)Nc1cccc(Br)c12`: the Activity entry in data set [2] and in data set [1] was “Non-Toxic” each time.
On to `CCC[C@@H]1C[C@@H](NCc2ccccc2)C[C@@]2(O1)C(=O)N(C)c1ccccc12` (racemic), for which the inhibition at 6 h, 10 ug/ml in data set [3] is greater than 50%. The half-maximal inhibitory concentration (IC50) in data set [6] and in data set [7] was greater than 27 µM in each case. In data set [4], the inhibition is greater than 50%.
On to `CCC[C@@H]1CC(=O)C[C@@]2(O1)C(=O)Nc1ccc(Br)cc12` (racemic), for which the Activity entry in data set [2] and in data set [1] was “Non-Toxic” each time.
Regarding `CCC[C@@H]1CC(=O)C[C@@]2(O1)C(=O)Nc1ccc(C)cc12`, the Activity result in data set [2] and in data set [1] was “Non-Toxic” throughout.
As for `CCC[C@@H]1CC(=O)C[C@@]2(O1)C(=O)N(C)c1cccc(Br)c12`, the “Ratio IC50” value in data set [5] is listed as greater than 3. Moreover, the inhibition at 6 h, 10 ug/ml in data set [3] was greater than 50%. Also, the IC50 in data set [6] is 9.3 µM; in data set [7], greater than 28 µM. Moreover, the Activity entry in data set [2] and in data set [1] was “Non-Toxic” each time. Also, the inhibition in data set [4] is greater than 50%.
Regarding `CCC/C=C/C(=O)CC1(O)C(=O)Nc2cccc(Br)c21` (racemic), in data set [3], the inhibition at 6 h, 10 ug/ml is greater than 50%. The Activity result in data set [2] and in data set [1] was “Toxic” throughout. Besides, in data set [4], the inhibition is greater than 50%.
On to `CCC[C@@H]1CC(=O)C[C@@]2(O1)C(=O)Nc1cc(Cl)ccc12` (racemic), for which the Activity result in data set [2] and in data set [1] was “Non-Toxic” each time.
For `CCC[C@@H]1CC(=O)C[C@@]2(O1)C(=O)Nc1cccc(Br)c12`, the Activity result in data set [2] and in data set [1] was “Non-Toxic” each time.
On to `CCC[C@@H]1C/C(=N/O)C[C@@]2(O1)C(=O)Nc1ccccc12` (racemic), for which the inhibition at 6 h, 10 ug/ml in data set [3] is greater than 50%. In addition, the Activity result in data set [2] and in data set [1] was “Non-Toxic” each time. Besides, the inhibition in data set [4] is greater than 50%.
On to `CCC[C@@H]1CC(=O)C[C@@]2(O1)C(=O)Nc1cccc(Cl)c12`, for which the Activity entry in data set [2] and in data set [1] was “Non-Toxic” in each case.
With `CCC[C@@H]1C[C@@H](N2CCCC2)C[C@@]2(O1)C(=O)Nc1ccccc12` (racemic), the “Ratio IC50” value in data set [5] is recorded as greater than 1.2. In addition, the inhibition at 6 h, 10 ug/ml in data set [3] was greater than 50%. The IC50 in data set [6] was 26 µM; in data set [7] it was greater than 31 µM. Further, in data set [4], the inhibition was greater than 50%.
In the case of `CCC[C@@H]1CC(=NOCc2ccccc2)C[C@@]2(O1)C(=O)Nc1ccccc12` (racemic), the “Ratio IC50” value in data set [5] is 3. In data set [3], the inhibition at 6 h, 10 ug/ml was greater than 50%. The IC50 in data set [6] came to 3 µM; in data set [7], 8.9 µM. Further, the inhibition in data set [4] is greater than 50%.
As to `CCC[C@@H]1C/C(=N/OCc2ccccc2)C[C@@]2(O1)C(=O)Nc1ccccc12`, the “Ratio IC50” value in data set [5] is on record as 10 - 11. Further, in data set [3], the inhibition at 6 h, 10 ug/ml was greater than 50%. Moreover, the IC50 in data set [6] came to 1.5 µM; in data set [7], 16 µM. Moreover, the inhibition in data set [4] was greater than 50%.
For `CCC[C@H]1C/C(=N/OCc2ccccc2)C[C@]2(O1)C(=O)Nc1ccccc12`, in data set [5], the “Ratio IC50” value is recorded as 0.88. In data set [3], the inhibition at 6 h, 10 ug/ml is greater than 50%. The IC50 was determined as 16 µM in data set [6] and 14 µM in data set [7]. For the same compound, the inhibition in data set [4] is greater than 50%.
Consider `CCC[C@@H]1C[C@@H](NCc2ccccc2)C[C@@]2(O1)C(=O)Nc1ccccc12` (racemic), for which the “Ratio IC50” value in data set [5] is given as greater than 4.1. Further, in data set [3], the inhibition at 6 h, 10 ug/ml is greater than 50%. Also, the IC50 in data set [6] was 6.8 µM; in data set [7], greater than 28 µM. Moreover, the Activity entry in data set [2] and in data set [1] was “Non-Toxic” in each case. Further, the inhibition in data set [4] was greater than 50%.
In the case of `CCC/C=C/C(=O)CC1(O)C(=O)Nc2ccccc21` (racemic), the Activity result in data set [2] and in data set [1] was “Toxic” in each case.
Consider `CCC[C@@H]1C[C@@H](O)C[C@@]2(O1)C(=O)Nc1ccccc12`, for which the Activity entry in data set [2] and in data set [1] was “Non-Toxic” each time.
`CCC[C@@H]1C[C@@H](NCc2ccccc2)C[C@@]2(O1)C(=O)N(C)c1cccc(Br)c12` (racemic): in data set [3], the inhibition at 6 h, 10 ug/ml was greater than 50%. The 50% inhibitory concentration (IC50) in data set [6] was greater than 33 µM; in data set [7], greater than 22 µM. Moreover, the inhibition in data set [4] is greater than 50%.
With `CCC[C@@H]1CC(=O)C[C@@]2(O1)C(=O)Nc1ccccc12`, the Activity entry in data set [2] is “Non-Toxic”.
